Measurements taken from EP0579202A1, “Sulfhydryl-complexing agents in clinical test elements” (Johnson & Johnson Clinical Diagnostics, Inc., priority 1992, dated 1994).

Key:
[1] = Dry salicylate element with blocking agent in the spreading layer (Example 1); settings: for Salicylate Prediction of Fluid Fluid B: serum with 40 mg/dL salicylate and 100 mg/dL NAC; for Salicylate Prediction of Fluid Fluid B / Salicylate Prediction of Fluid Fluid C / Salicylate Prediction of Fluid Fluid A: agent in spreading layer at given g/m²; for Salicylate Prediction of Fluid Fluid C / Salicylate Prediction of Fluid Fluid A: serum with 40 mg/dL salicylate; for Salicylate Prediction of Fluid Fluid C: one hour exposure to stopper containing 2-benzothiazolethiol; for Salicylate Prediction of Fluid Fluid A: 540 nm, 5 minute, 37°C; for reducing sulfhydryl interference: salicylate element
Procedure: In this example, a dry analytical element formulated for measuring salicylate was used. […] A series of serum samples containing known levels of salicylate were spotted on the various test elements. Absorbance was measured at 540 nm after a 5 minute incubation at 37°C. From this series, a relationship between element absorbance and salicylate level could be made.
Serum samples containing 40 mg/dL of salicylate (Fluid A) and either 100 mg/dL of NAC (Fluid B) or a one hour exposure to a stopper containing 2-benzothiazolethiol (Fluid C) were then spotted on the elements and their predicted salicylate levels determined.

[2] = Salicylate element with and without silver nitrate (Example 3)
Procedure: Standard elements (without blocking reagent) were spotted with solutions containing human serum spiked with salicylate in concentrations between 0 and 60 mg/dL. After a 5 minute incubation at 37°C the reflectance density was measured at 540 nm. Predicted salicylate concentration can be determined by fitting a response curve through the reflectance densities produced.

[3] = Screening of sulfhydryl-blocking reagents for NAC interference in the standard SOX solution assay; format: biochemical; settings: more NAC than N-ethyl maleimide
Procedure: (§1) A standard SOX reaction solution can be prepared containing in 1 mL; 100 mM TRIS-C1, pH 7.75, 200 mM sarcosine, 1.5 mM 4-AAP, 0.02% (by weight) phenol, and 5.9 Units peroxidase. All reagents are combined in the assay cuvette and incubated at 37°C for 10 minutes after which time 1 Unit/mL SOX is added to the solution to initiate reaction. Reactions are observed spectrophotometrically at 505 nm; millimolar extinction coefficient is 17.4.
A variety of materials were selected as examples of reagents that might complex with (bind) the sulfhydryl group of NAC and thus block interference. […] One group contains materials not effective under the conditions tested; a second group appeared to minimize NAC interference, but adversely affected the assay. For example, the solution became gel-like or color formation was impaired. It is possible that this group of materials would be effective if they were incorporated apart from the detection chemistry, for example, either attached to beads or polymers or in a separate layer in a multilayer slide format.
The third group contains materials that effectively eliminated NAC interference and had no effect on dye formation or enzyme rate. In each case, the blocking reagent alone (set d) had no effect on the detection system. When this group of blocking reagents and NAC were included in the reaction cuvette, SOX reaction rates improved markedly. […]

[4] = Effect of NAC on preformed indicator dye in the SOX reaction (bleaching); settings: for Final absorbances: 505 nm
Procedure: as §1
When determining the effect of NAC on SOX activity, the standard test described above is carried out except that to allow the reaction to go to completion before NAC is added, only 0.1 mM sarcosine is added. Thus, we ensured that all color formation was complete (the sarcosine being depleted). Indicator dye formed in four cuvettes when SOX was added; absorbance endpoint was 1,800. NAC then was added to the cuvettes to the final concentration of 0, 1, 2.5 or 10 mM, and the changes in absorption monitored. Rapidly (less than 10 seconds) each cuvette containing MAC lost color, proportional to MAC concentration. Final absorbances were 1.880, 1.100, 0.600 and 0.150 for cuvette containing 0, 1, 2.5 or 10 mM NAC, respectively.

[5] = Acetaminophen element with and without maleimide (Example 4); settings: n-acetylcysteine at 100 mg/dL
Procedure: This example is similar to Example 3 except that the analyte is acetaminophen and the element used for testing is the one shown in Table VII below.
Human serum spiked with acetaminophen varying in concentration between 1 and 294 mg/dL were spotted on the standard element and the element of the invention. After incubating for 5 minutes at 37°C, reflectance density was measured at 670 nm. Predictions of acetaminophen concentration were obtained as was done for salicylate concentration in Example 3. Differences between the predicted values and the values actually obtained from the two elements (standard and the invention) are shown in Table VIII.

horse radish peroxidase = target: T1, horse radish peroxidase (Armoracia rusticana, UniProt P00433); experiment: Effect of NAC on peroxidase activity (o-dianisidine dye formation); format: biochemical; settings: 1 mM NAC in reaction mixture; 37°C; 430 nm
T1 sequence (P00433 31-338): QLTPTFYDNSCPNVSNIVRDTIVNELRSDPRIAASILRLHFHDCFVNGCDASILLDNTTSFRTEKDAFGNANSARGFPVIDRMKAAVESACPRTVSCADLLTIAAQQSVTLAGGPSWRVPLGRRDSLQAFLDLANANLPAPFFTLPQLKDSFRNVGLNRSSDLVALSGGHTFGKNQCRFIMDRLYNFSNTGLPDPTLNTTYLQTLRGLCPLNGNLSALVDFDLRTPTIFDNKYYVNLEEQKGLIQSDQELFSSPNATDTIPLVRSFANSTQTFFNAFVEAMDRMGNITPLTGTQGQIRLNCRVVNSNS
Procedure: One mL reaction solution was prepared containing 100 mM TRIS-C1, pH 7.75, 0.88 mM H₂O₂, and 0.157 mM o-dianisidine. All reagents were combined in the assay cuvette and incubated at 37°C for 10 minutes after which time 0.59 Unit of horse radish peroxidase was added to the solution to initiate reaction. Reactions were monitored spectrophotometrically at 430 nm; millimolar extinction coefficient was 11.3.

[6] = Placement of the blocking reagent in the dry salicylate element (Example 2); settings: Serum w/ Salicylate w/ 100mg/dL N-acetyl cysteine; no blocking reagent
From the text: Placement of the blocking reagent in the proper layer of the dry element is essential for stability. In this example, we placed the blocking reagent (0.5 g/m² of maleimide) in the spreading layer of one element, a location that is relatively hydrophobic in nature, and in the reagent layer of another element. […]

NC(=O)CI [Iodoacetamide]
Salicylate Prediction of Fluid Fluid B [1]: 12 mg/dL | Salicylate Prediction of Fluid Fluid C [1]: 42 mg/dL | Salicylate Prediction of Fluid Fluid A [1]: 40 mg/dL

Silver Nitrate
reducing sulfhydryl interference [1]: work well | Salicylate Prediction of Fluid Fluid B [1]: 40 mg/dL | Salicylate Prediction of Fluid Fluid C [1]: 40 mg/dL | Salicylate Prediction of Fluid Fluid A [1]: 40 mg/dL | bias, Std w/ AgNO3 ([2]; Salicylate at 15 mg/dL, 1 hour contact w/ rubber stoppers containing 2-benzothiazolethiol, 0.4 g/m² silver nitrate): 0.3 mg/dL bias | bias, Std w/ AgNO3 ([2]; Salicylate at 15 mg/dL, n-acetylcysteine at 102 mg/dL, 0.4 g/m² silver nitrate in spreading layer): -0.01 mg/dL bias | bias, Std w/ AgNO3 ([2]; Salicylate at 40 mg/dl, 1 hour contact w/ rubber stoppers containing 2-benzothiazolethiol, 0.4 g/m² silver nitrate): 0.3 mg/dL bias | bias, Std w/ AgNO3 ([2]; Salicylate at 40 mg/dl, n-acetylcysteine at 102 mg/dL, 0.4 g/m² silver nitrate): -1.2 mg/dL bias

Sc1nc2ccccc2s1 [2-benzothiazolethiol]
bias, Standard element ([2]; Salicylate at 15 mg/dL, 1 hour contact w/ rubber stoppers containing 2-benzothiazolethiol): -12.9 mg/dL bias | bias, Standard element ([2]; Salicylate at 40 mg/dl, 1 hour contact w/ rubber stoppers containing 2-benzothiazolethiol): -31.5 mg/dL bias

Gold Chloride
reducing sulfhydryl interference [1]: work well | Salicylate Prediction of Fluid Fluid B [1]: 40 mg/dL | Salicylate Prediction of Fluid Fluid C [1]: 40 mg/dL | Salicylate Prediction of Fluid Fluid A [1]: 40 mg/dL

CCN1C(=O)C=CC1=O [N-ethyl-maleimide]
enzyme rate [3]: no improvement in enzyme rate is observed

Fe(NO)₃
Salicylate Prediction of Fluid Fluid B [1]: 0.0 mg/dL | Salicylate Prediction of Fluid Fluid C [1]: 17 mg/dL | Salicylate Prediction of Fluid Fluid A [1]: 40 mg/dL

CC(=O)N[C@@H](CS)C(=O)O [NAC, N-acetyl cysteine]
Final absorbances ([4]; 1 mM NAC added after colour formation complete): 1.100 | Final absorbances ([4]; 2.5 mM NAC added after colour formation complete): 0.600 | Final absorbances ([4]; 10 mM NAC added after colour formation complete): 0.150 | time in which cuvette lost color ([4]; cuvettes with 1, 2.5 or 10 mM NAC): less than 10 seconds | bias, Standard element ([5]; Acetaminophen at 1 mg/dL): -1.0 mg/dL bias | bias, Standard element ([5]; Acetaminophen at 52 mg/dl): -52 mg/dL bias | bias, Standard element ([5]; Acetaminophen at 202 mg/dL): -200 mg/dL bias | peroxidase activity, as monitored by dye formation (horse radish peroxidase): significantly inhibited | bias, Standard element ([2]; Salicylate at 15 mg/dL, n-acetylcysteine at 102 mg/dL): -11.32 mg/dL bias | bias, Standard element ([2]; Salicylate at 40 mg/dl, n-acetylcysteine at 102 mg/dL): -40 mg/dL bias | salicylate prediction, Standard Element [6]: 0.0 mg/dL
